Here are results for 8 molecules from patent US20130165450A1, “Novel Thiazol-Carboximide Derivatives as PDK1 Inhibitors” (priority 2010, published 2013).

This test addresses T1, recombinant human PDK1 (amino acids 51-556) (Homo sapiens, UniProt O15530).
T1 construct: containing amino acids 51-556 of the human PDK1 enzyme; made in house
T1 sequence (O15530 51-556): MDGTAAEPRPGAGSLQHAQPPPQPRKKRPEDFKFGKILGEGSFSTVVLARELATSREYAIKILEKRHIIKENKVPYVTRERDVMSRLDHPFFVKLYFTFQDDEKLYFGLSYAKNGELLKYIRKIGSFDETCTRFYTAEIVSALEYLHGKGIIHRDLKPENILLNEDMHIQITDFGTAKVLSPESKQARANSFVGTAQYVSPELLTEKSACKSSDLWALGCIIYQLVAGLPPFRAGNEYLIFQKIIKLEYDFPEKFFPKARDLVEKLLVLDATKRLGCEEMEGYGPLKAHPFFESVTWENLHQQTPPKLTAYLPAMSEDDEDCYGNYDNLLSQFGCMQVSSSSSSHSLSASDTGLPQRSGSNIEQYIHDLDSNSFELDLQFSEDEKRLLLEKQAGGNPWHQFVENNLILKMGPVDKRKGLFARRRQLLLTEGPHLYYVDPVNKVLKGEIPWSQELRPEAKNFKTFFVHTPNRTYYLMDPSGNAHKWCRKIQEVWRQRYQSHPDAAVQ
As to the kind of experiment: PDK1 IMAP fluorescence polarization kinase assay. In kind it is biochemical. The note with it: 10 nM PDK1, 100 nM peptide substrate, 100 nM PIFtide, 2.5 uM ATP, 1.5 hours; rated A-D. For orientation: Fluorescence polarisation rises when a labelled molecule tumbles more slowly, as on binding a larger partner.
On to `N[C@@H]1CCCN(c2c(F)cccc2NC(=O)c2csc(-c3cnn(CCCOc4ccccc4)c3)n2)C1` [Compound 43, N-[2-(3(R)-amino-1-piperidinyl)-3-fluorophenyl]-2-[1-(3-phenoxypropyl)-1H-pyrazol-4-yl]-4-thiazolecarboxamide], for which the IC50 is more than 1 µM. With `COC(=O)c1cccc(F)c1Cn1cc(-c2nc(C(=O)Nc3cccc(F)c3N3CCC[C@@H](N)C3)cs2)cn1` [Compound 45, methyl 2-[[4-[4-[[[2-(3(R)-amino-1-piperidinyl)-3-fluorophenyl]amino]carbonyl]-2-thiazolyl]-1H-pyrazol-1-yl]methyl]-3-fluorobenzoate], the IC50 lay within 0.251 to 1 µM. For the molecule `N[C@@H]1CCCN(c2c(F)cccc2NC(=O)c2csc(-c3cnn(Cc4c(F)cccc4CO)c3)n2)C1` [Compound 46, N-[2-(3(R)-amino-1-piperidinyl)-3-fluorophenyl]-2-[1-[[2-fluoro-6-(hydroxymethyl)phenyl]methyl]-1H-pyrazol-4-yl]-4-thiazolecarboxamide], the IC50 lay within 0.051 to 0.25 µM. Turning to `N[C@@H]1CCCN(c2c(F)cccc2NC(=O)c2csc(-c3cnn(CC4CCNCC4)c3)n2)C1` [Compound 47, N-[2-(3(R)-amino-1-piperidinyl)-3-fluorophenyl]-2-[1-(4-piperidinylmethyl)-1H-pyrazol-4-yl]-4-thiazolecarboxamide], the IC50 was more than 1 µM.

On to `N[C@@H]1CCCN(c2c(F)cccc2NC(=O)c2csc(-c3cnn(Cc4ccccc4Br)c3)n2)C1` [Compound 49, N-[2-(3(R)-amino-1-piperidinyl)-3-fluorophenyl]-2-[1-[(2-bromophenyl)methyl]-1H-pyrazol-4-yl]-4-thiazolecarboxamide], for which the IC50 lay within 0.251 to 1 µM. On to `N[C@@H]1CCCN(c2c(F)cccc2NC(=O)c2csc(-c3cnn(Cc4ccccc4-c4cn[nH]c4)c3)n2)C1` [Compound 50, N-[2-(3(R)-amino-1-piperidinyl)-3-fluorophenyl]-2-[1-[[2-(1h-pyrazol-4-yl)phenyl]methyl]-1H-pyrazol-4-yl]-4-thiazolecarboxamide], for which the IC50 was more than 1 µM.

`NCc1ccccc1Cn1cc(-c2nc(C(=O)Nc3cccc(F)c3N3CCC[C@@H](N)C3)cs2)cn1` [Compound 51, 2-[1-[[2-(aminomethyl)phenyl]methyl]-1H-pyrazol-4-yl]-N-[2-(3(R)-amino-1-piperidinyl)-3-fluorophenyl]-4-thiazolecarboxamide]: the IC50 lay in the range of 0.251 to 1 µM. On to `N[C@@H]1CCCN(c2c(F)cccc2NC(=O)c2csc(-c3cnn(Cc4cccc(F)c4F)c3)n2)C1` [Compound 52, N-[2-(3(R)-amino-1-piperidinyl)-3-fluorophenyl]-2-[1-[(2,3-difluorophenyl)methyl]-1H-pyrazol-4-yl]-4-thiazolecarboxamide], for which the IC50 was in the range of 0.051 to 0.25 µM.

As usually defined, the IC50 is the concentration at which inhibition is half-maximal.
